Results from the RepoRT retention time repository.

Assay: Agilent ZORBAX 300 SB-C18, 150 × 1 mm, 3.5 µm; A: water + 0.01% heptafluorobutyric acid; B: acetonitrile + 0.01% heptafluorobutyric acid; gradient (min/%B) 0/0 100/90
Conditions: stereoisomer not certain

In order of falling LC retention time:
1. CCCCCCCCCCOc1ccc(C(=O)NCCN2Cc3ccccc3C2=O)cc1  20.2 min
2. CCc1ccc(C(c2c[nH]c3ccccc23)c2c[nH]c3ccccc23)cc1  18.2 min
3. O=C(C1c2ccccc2Oc2ccccc21)N1CCCc2ccccc21  17.8 min
4. CCc1c(C)[nH]c(C(=O)OCc2ccccc2)c1C  17.1 min
5. O=C1c2ccccc2C(=O)c2cc(C(=O)N3CCC(c4ccccc4)CC3)ccc21  17 min
6. Cc1ccc2[nH]c(-c3ccccc3)cc2c1  16.8 min
7. CC(C)(C)c1ccc(C(=O)NC(CC(=O)O)c2ccc(C(C)(C)C)cc2)cc1 (centres undefined)  16.7 min
8. CCOc1ccc(CCNC(=O)N(c2ccccc2)c2ccccc2)cc1OCC  16 min
9. COc1ccc(CCN2C(=O)C(C)C(Cc3ccc(C)cc3)C2=O)cc1OC (centres undefined)  15.9 min
10. O=C(NCCc1ccco1)c1cccc2c1oc1ccccc12  15.7 min
11. COC(=O)c1c(C)[nH]c(-c2ccccc2)c1-c1ccccc1  15.6 min
12. c1ccc(-c2cc3cc4c(cc3[nH]2)OCO4)cc1  15.1 min
13. Cn1c(O)c(Cc2ccc(OCc3ccccc3)cc2)c(=O)n(C)c1=O  15 min
14. Cc1cccc(C=NNC(=O)c2cc3ccccc3cc2O)c1  14.9 min
15. OCCCc1cn(-c2ccccc2)c2ccccc12  14.8 min
16. COc1cccc(OC)c1C(=O)C=Cc1ccccc1  14.7 min
17. Cn1c2ccccc2c2nc3ccccc3nc21  14.5 min
18. CCCCc1c(O)c2ccccc2n(-c2ccccc2)c1=O  14.5 min
19. COC(=O)Cn1c(=O)c(-c2ccccc2)nc2ccccc21  14.3 min
20. Cc1[nH]c2ccccc2c1CCN1C(=O)C2CCCCC2C1=O (centres undefined)  14.3 min
21. COC(=O)c1[nH]c2ccccc2c1-n1cccc1  14.3 min
22. Oc1ccc2cccc(-n3cccc3)c2c1  14.1 min
23. c1coc(-c2c3c(nc4ccc5ccccc5c24)CCCC3)c1  13.8 min
24. O=C(Oc1cccc2cccnc12)c1ccccc1  13.8 min
25. CC(=O)C1(O)CCC2C3C=CC4=CC(=O)CCC4(C)C3CCC21C (centres undefined)  13.8 min
26. CC(C)(C)c1ccc(C(CC(=O)O)NC(=O)c2ccccc2)cc1 (centres undefined)  13.7 min
27. Cc1cc(C(=O)N2CCCCC2)c2c(=O)n(CC(=O)N3CCc4ccccc43)c(=O)n(C)c2n1  13.5 min
28. COc1ccc(C(CNC(=O)c2n[nH]c(=O)c3ccccc23)Cc2ccccc2)cc1OC (centres undefined)  13.3 min
29. CC1(C)CC(=O)c2cc3c(nc2C1)CC(C)(C)CC3=O  13.2 min
30. Cc1ccc(C2C3=C(CC(C)(C)CC3=O)NC3=C2C(=O)CC(C)(C)C3)cc1  13.2 min
31. Cc1ccc(-n2cccc2)c(O)c1  13.1 min
32. CC(C)c1ccc(C=NNC(N)=S)cc1  12.8 min
33. CCOC(=O)C=CC(=O)NNC(=O)C(c1ccccc1)c1ccccc1  12.8 min
34. Cn1cccc1CC(=O)NN=CC=Cc1ccccc1  12.7 min
35. O=C1CCCc2c1[nH]c1ccccc21  12.3 min
36. Cc1ccc2c(c1)C1CN(C)CCC1N2C(=S)NC1CCCCC1 (centres undefined)  12.2 min
37. O=C1CN(C(=O)CCCc2c[nH]c3ccccc23)c2ccccc2N1  12 min
38. O=C(O)Cn1c(=O)c(-c2ccccc2)nc2ccccc21  11.8 min
39. Nc1ccc(C(=O)NN=Cc2cccc3ccccc23)cc1  11.6 min
40. COc1ccc(-c2ccccc2)cc1N  11.6 min
41. Oc1ccc(-n2cccc2)cc1  11.5 min
42. CCN(CC)CCC(O)(c1ccccc1)C1CCCCC1 (centres undefined)  11.3 min
43. CC1CCCCN1C(=O)c1cncc(C(=O)N2CCCCC2C)c1 (centres undefined)  11.3 min
44. Cn1ccc2cc(C=O)ccc21  11.3 min
45. CC(C)(C)c1ccc(C(=O)N2CCN(Cc3ccccc3)CC2)cc1  11.1 min
46. C1CCC(OCCN2CCN(CCOC3CCCCC3)CC2)CC1  10.9 min
47. CC(=NNc1ccccc1)C1=C(C)NC(=O)NC1c1ccccc1 (centres undefined)  10.8 min
48. CC1(C)SC2C(NC(=O)Cc3ccccc3)C(=O)N2C1C(=O)O (centres undefined)  10.5 min
49. Cc1cc(C)c(N)c(C(=O)O)c1  10.4 min
50. Nc1nc(=Nc2ccccc2)n2c(n1)sc1ccccc12  10.4 min
51. COc1ccc(NC(=O)Nc2ccc(OC)c(OC)c2)cc1OC  10.2 min
52. CCOC(=O)C=CC(=O)NNC(=O)CCC(=O)Nc1ccc(C)cc1C  10.1 min
53. c1cncc(-c2cc3ccccc3[nH]2)c1  10.1 min
54. COc1ccc(CN(CCN(C)C)c2ccccn2)cc1  10.1 min
55. Nc1ccc(OCc2ccccc2)cc1  9.84 min
56. CCn1c2ccccc2c2cc(N)ccc21  9.76 min
57. CCCCCCC(N)=O  9.68 min
58. CSC1=NC(C)(C)Cc2c(C)cccc21  9.67 min
59. COC(=O)C1C(O)CCC2CN3CCc4c([nH]c5ccccc45)C3CC21 (centres undefined)  9.64 min
60. Cc1ccc(-c2nn[nH]n2)cc1  9.59 min
61. NC(=S)NCCc1ccccc1  9.59 min
62. CCN1CCN(Cc2cc(C)cc(C=O)c2C)CC1  9.37 min
63. NC1=NC(=Nc2ccc(N3CCOCC3)cc2)c2ccccc21  9.27 min
64. NC(=O)c1ccc(NC(=S)Nc2ccccc2)cc1  9.25 min
65. Cc1c[n+](C)c(C)cc1-c1ccccc1  9.13 min
66. O=C(CC1NC(=O)N(C2CCCCC2)C1=O)Nc1cccnc1 (centres undefined)  9.1 min
67. Cc1ccc(-c2nn[nH]n2)n1C  9.09 min
68. Nc1ccc(C(O)(c2ccc(N)cc2)c2ccc(N)cc2)cc1  9.07 min
69. NC(=O)c1ccccc1NC(=O)Cn1cnc2ccccc2c1=O  9.05 min
70. CC(=O)Nc1ccc(C(=O)NCc2ccco2)cc1  8.96 min
71. S=C1N=C2CCCC2C2(CCCC2)N1 (centres undefined)  8.95 min
72. Cc1c(N=Cc2ccncc2)c(=O)n(-c2ccccc2)n1C  8.92 min
73. Cc1cccc(NC(N)=S)n1  8.81 min
74. c1cc(-c2noc(-c3cnccn3)n2)ccn1  8.8 min
75. C=CCC(N)(CC=C)C1=CC(CC(=C)C)NC(CC(=C)C)C1 (centres undefined)  8.79 min
76. O=C1NCC2(CCN(CCc3ccccc3)CC2)O1  8.72 min
77. COc1ccc(C2=C(N)C(=O)NC2=O)cc1OC  8.69 min
78. CCCCCNC=O  8.68 min
79. CC(N)=C1C(=O)C(=O)N(C)C1c1ccccc1 (centres undefined)  8.68 min
80. CCCc1ccc(O)c(N)c1  8.64 min
81. Cc1ccc2cc(C)c(NCc3cccnc3)nc2c1  8.55 min
82. COCCNC(=O)Cn1c(=O)n(C)c2ccccc21  8.47 min
83. O=C(O)CC(C(=O)O)c1c[nH]c2ccccc12 (centres undefined)  8.46 min
84. NC(CCC(=O)OCc1ccccc1)C(=O)O (centres undefined)  8.38 min
85. CN(C)CCC(C)(O)Cc1ccccc1 (centres undefined)  8.38 min
86. O=C(NN=Cc1ccncc1)c1ccccc1  8.3 min
87. O=C1Nc2ccccc2C1CCCO (centres undefined)  8.22 min
88. CCc1cnccn1  8.09 min
89. S=C1NCN(C2CCCCC2)CN1  8.07 min
90. CC(NC(=O)c1ccccc1)C(=O)O (centres undefined)  8 min
91. COC(=O)CC1CN=C(N2CCCCC2)NC1=O (centres undefined)  7.95 min
92. CCCNCc1ccc2c(c1)n(C)c(=O)n2C  7.81 min
93. CCN(CC)c1ccc(CNCCCN(C)C)cc1  7.76 min
94. c1ccc2ncncc2c1  7.73 min
95. Cn1c(=O)c2ccccc2n(CCN)c1=O  7.65 min
96. C[N+](C)(N)Cc1ccccc1  7.54 min
97. NCCc1cccs1  7.47 min
98. O=c1[nH]c2ccccc2c(=O)n1CCO  7.39 min
99. COC(=O)CCCCCN  7.25 min
100. CN(C)CCCN(C)C  7.19 min
101. CC(=O)NC(C)c1ccc(O)cc1 (centres undefined)  7.19 min
102. Nc1ccc2nccnc2c1  7.1 min
103. CC(C)N(C)C(C)(C)C  7.1 min
104. CNCc1cccn1C  7.09 min
105. CNC(=S)C(=S)NC  7.06 min
106. Cn1c(=O)n(-c2cccc(N)c2)c(=O)n1C  7.06 min
107. Nc1ccc(CN2CCCC2)cc1  7.04 min
108. CCNCCN(CC)CC  6.96 min
109. CCOC(=O)c1c(N)n(C(C)=O)[nH]c1=O  6.93 min
110. NCC1CCCCN1 (centres undefined)  6.88 min
111. c1cn[nH]c1  6.84 min
112. O=C1CCNC2CCCCC12 (centres undefined)  6.79 min
113. CNCCc1ccncc1  6.72 min
114. CC(C)CC(N)C(N)=O (centres undefined)  6.71 min
115. Nc1ccc2ncc(=O)[nH]c2c1  6.59 min
116. c1cncc(-c2cn[nH]c2)c1  6.56 min
117. CN1CCCNCC1  6.55 min
118. CNCCNC  6.51 min
119. CC[N+](C)(CC)CC  6.48 min
120. Cc1ccncc1  6.26 min
121. CNC(=O)c1ccc(N)cc1  6.25 min
122. NC1CCNCC1  6.22 min
123. Nc1ccccn1  6.12 min
124. COC(=O)C(N)CO (centres undefined)  4 min
125. CC(C)C(N)C(=O)O (centres undefined)  2.86 min
126. Cc1nnc(N)[nH]c1=O  2.72 min
127. C[N+](C)(C)CCOP(=O)(O)OP(=O)(O)OCC1OC(n2ccc(N)nc2=O)C(O)C1O (centres undefined)  1.63 min
128. NCCCP(=O)(O)O  1.3 min
129. O=C1OCc2c1[nH]c(=O)[nH]c2=O  1.27 min
